IC50 data for 26 compounds are collected here from patent publication US20020160983A1, “Substituted benzopyranones as telomerase inhibitors” (priority 2001, published 2002).

Where only a bound is given, the exact number is not on record here.

telomerase enzyme, sequence (O14746 whole entry): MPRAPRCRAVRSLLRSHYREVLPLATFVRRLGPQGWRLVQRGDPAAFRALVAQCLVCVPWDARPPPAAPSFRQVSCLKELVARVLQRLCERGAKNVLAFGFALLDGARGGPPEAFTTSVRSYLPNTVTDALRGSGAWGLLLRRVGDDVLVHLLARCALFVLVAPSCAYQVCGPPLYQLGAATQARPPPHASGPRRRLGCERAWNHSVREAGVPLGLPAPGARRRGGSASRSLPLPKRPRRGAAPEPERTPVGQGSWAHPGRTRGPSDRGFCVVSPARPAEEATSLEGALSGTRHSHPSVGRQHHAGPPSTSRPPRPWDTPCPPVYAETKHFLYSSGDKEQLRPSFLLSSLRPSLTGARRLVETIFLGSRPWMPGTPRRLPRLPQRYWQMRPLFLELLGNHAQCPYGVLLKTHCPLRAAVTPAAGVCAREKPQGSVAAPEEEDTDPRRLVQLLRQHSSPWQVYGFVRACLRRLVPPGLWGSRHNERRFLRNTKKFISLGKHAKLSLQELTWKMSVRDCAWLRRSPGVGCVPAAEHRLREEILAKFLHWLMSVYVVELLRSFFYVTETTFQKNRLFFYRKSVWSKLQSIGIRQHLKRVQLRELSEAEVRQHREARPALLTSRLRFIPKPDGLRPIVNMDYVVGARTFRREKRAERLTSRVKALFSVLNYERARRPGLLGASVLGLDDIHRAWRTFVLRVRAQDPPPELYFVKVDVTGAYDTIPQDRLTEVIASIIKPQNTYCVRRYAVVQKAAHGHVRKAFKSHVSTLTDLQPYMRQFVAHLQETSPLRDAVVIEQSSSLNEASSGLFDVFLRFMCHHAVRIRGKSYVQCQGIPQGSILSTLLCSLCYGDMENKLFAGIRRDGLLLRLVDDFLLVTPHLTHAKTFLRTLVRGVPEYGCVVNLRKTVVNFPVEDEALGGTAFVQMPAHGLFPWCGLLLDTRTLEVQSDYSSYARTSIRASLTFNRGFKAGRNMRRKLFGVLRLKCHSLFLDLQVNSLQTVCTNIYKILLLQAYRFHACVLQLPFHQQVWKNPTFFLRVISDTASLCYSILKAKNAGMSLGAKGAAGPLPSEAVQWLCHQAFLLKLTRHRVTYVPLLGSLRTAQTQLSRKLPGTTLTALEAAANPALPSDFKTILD

In the experiment the target is telomerase enzyme (Homo sapiens, UniProt O14746). The experiment is described as follows: Flash Plate-based telomerase activity assay. In kind it is biochemical. To be noted: two hours of incubation at 37°, biotinylated oligo primer, radioactive labeled probe. On the procedure:
The telomerase activity of the compounds has been evaluated using a Flash Plate-based assay.
Briefly the assay mixture is constituted of:
telomerase enzyme diluted in a buffer, the composition of which has been selected to maintain the enzyme activity stable along the duration of the assay.
dNTPs, deoxynucleotides 5′-triphosphate.
biotinylated oligo as primer.
increasing concentrations of test compounds/positive control.
After two hours of incubation at 37° degrees the telomeric repeats added by telomerase are evaluated by hybridization in solution with a 3′-radioactive labeled short oligonucleotide probe.
The extent of hybridization is then quantitated by transferring the reaction mixture in a streptavidin-coated flash plate, where the binding between biotin and streptavidin occurs.
The telomerase activity is proportional to the radioactivity measured and the inhibitory activity of the compounds is evaluated as IC50 using the Sigma Plot fit program.
With the above-described method IC50 values of the compounds of the present invention were determined.
In the case of `O=c1cc(-c2ccccc2)oc2c(O)c(O)ccc12` [Compound 1, 7,8-dihydroxy-2-phenyl-4H-chromen-4-one], the IC50 (commonly the concentration at which inhibition is half-maximal) was found to be 33 µM. Take `O=c1cc(-c2ccc(O)cc2)oc2c(O)c(O)ccc12` [Compound 2, 7,8-dihydroxy-2-(4-hydroxyphenyl)-4H-chromen-4-one]: the IC50 is 3 µM. To `O=c1cc(-c2ccc(O)c(O)c2)oc2c(O)c(O)ccc12` [Compound 3, 2-(3,4-dihydroxyphenyl)-7,8-dihydroxy-4H-chromen-4-one] belongs 0.3 µM. As for `O=c1cc(-c2ccccc2O)oc2c(O)c(O)ccc12` [Compound 4, 7,8-dihydroxy-2-(2-hydroxyphenyl)-4H-chromen-4-one], the IC50 is 25.3 µM. To `O=c1cc(-c2cccc(O)c2)oc2c(O)c(O)ccc12` [Compound 5, 7,8-dihydroxy-2-(3-hydroxyphenyl)-4H-chromen-4-one] belongs 34 µM; to `COc1ccc(-c2cc(=O)c3ccc(O)c(O)c3o2)cc1OC` [Compound 7, 7,8-dihydroxy-2-(3,4-dimethoxyphenyl)-4H-chromen-4-one], 12 µM; to `CC(=O)Oc1ccc(-c2cc(=O)c3ccc(OC(C)=O)c(OC(C)=O)c3o2)cc1OC(C)=O` [Compound 14, 2-(3,4-diacetoxyphenyl)-7,8-diacetoxy—4H-chromen-4-one], 15 µM. To `COc1ccc(-c2cc(=O)c3ccc(OC)c(OC)c3o2)cc1OC` [Compound 24, 7,8-dimethoxy-2-(3,4-dimethoxyphenyl)-4H-chromen-4-one] belongs above 40 µM. To `O=c1c(Cl)c(-c2ccc(O)c(O)c2)oc2c(O)c(O)ccc12` [Compound 37, 3-chloro-2-(3,4-dihydroxyphenyl)-7,8-dihydroxy-4H-chromen-4-one] belongs 0.8 µM. Regarding `COc1ccc(-c2oc3c(OC)c(OC)ccc3c(=O)c2Cl)cc1OC` [Compound 38, 3-chloro-2-(3,4-dimethoxyphenyl)-7,8-dimethoxy-4H-chromen-4-one], the 50% inhibitory concentration (IC50) was above 40 µM. With `N#Cc1c(-c2ccc(O)c(O)c2)oc2c(O)c(O)ccc2c1=O` [Compound 39, 3-cyano-2-(3,4-dihydroxyphenyl)-7,8-dihydroxy-4H-chromen-4-one], the IC50 is 0.13 µM.

As for `O=c1c(F)c(-c2ccc(O)c(O)c2)oc2c(O)c(O)ccc12` [Compound 41, 3-fluoro-2-(3,4-dihydroxyphenyl)-7,8-dihydroxy-4H-chromen-4-one], the IC50 came out at 0.6 µM. To `O=c1cc(-c2cccc(Cl)c2)oc2c(O)c(O)ccc12` [Compound 45, 2-(3-chlorophenyl)-7,8-dihydroxy-4H-chromen-4-one] belongs 30 µM; to `O=c1cc(-c2ccc(Cl)c(Cl)c2)oc2c(O)c(O)ccc12` [Compound 46, 2-(3,4-dichlorophenyl) -7,8-dihydroxy-4H-chromen-4-one], 14.3 µM; to `O=c1cc(-c2ccc(O)c(O)c2)oc2c(O)c(O)c(Cl)cc12` [Compound 49, 6-chloro-2-(3,4-dihydroxyphenyl)-7,8-dihydroxy-4H-chromen-4-one], 0.34 µM. With `COc1ccc(-c2cc(=O)c3cc(Cl)c(OC)c(OC)c3o2)cc1OC` [Compound 50, 6-chloro-2-(3,4-dimethoxyphenyl)-7,8-dimethoxy-4H-chromen-4-one], the IC50 worked out at 5.4 µM.

With `COc1ccc2c(=O)cc(-c3ccc(N)c(N)c3)oc2c1OC` [Compound 51, 2-(3,4-diaminophenyl)-7,8-dimethoxy-4H-chromen-4-one], the IC50 was found to be 7.4 µM.

Regarding `Nc1ccc(-c2cc(=O)c3ccc(O)c(O)c3o2)cc1N` [Compound 52, 2-(3,4-diaminophenyl)-7,8-dihydroxy-4H-chromen-4-one], the IC50 amounted to 3.6 µM. On to `COc1ccc2c(=O)cc(-c3ccc(NC(C)=O)c(NC(C)=O)c3)oc2c1OC` [Compound 58, N-[2-(acetylamino)-4-(7,8-dimethoxy-4-oxo-4H-chromen-2-yl)phenyl]acetamide], for which the IC50 is above 40 µM.

In the case of `COc1ccc2c(=O)cc(-c3ccc4[nH]cnc4c3)oc2c1OC` [Compound 61, 2-(1H-benzimidazol-5-yl)-7,8-dimethoxy-4H-chromen-4-one], the IC50 is 2.2 µM. For `COc1ccc2c(=O)cc(-c3ccc4[nH]nnc4c3)oc2c1OC` [Compound 65, 2-(1H-1,2,3-benzotriazol-5-yl)-7,8-dimethoxy-4H-chromen-4-one], the IC50 was above 40 µM. For `COc1ccc2c(=O)cc(-c3ccc4[nH]c(=O)[nH]c4c3)oc2c1OC` [Compound 67, 5-(7,8-dimethoxy-4-oxo-4H-chromen-2-yl)-1,3-dihydro-2H-benzimidazol-2-one], the IC50 stood at 19 µM. In the case of `COc1ccc2c(=O)cc(-c3ccc(O)c(O)c3)oc2c1O` [Compound 78, 8-hydroxy-7-methoxy-2-(3,4-dihydroxyphenyl)-4H-chromen-4-one], the IC50 was determined as 7.8 µM. In the case of `COc1ccc(-c2cc(=O)c3ccc(O)c(O)c3o2)cc1O` [Compound 79, 7,8-dihydroxy-2-(3-hydroxy-4-methoxyphenyl)-4H-chromen-4-one], the IC50 was found to be 11.7 µM. To `COc1ccc(-c2cc(=O)c3ccc(OC)c(OC)c3o2)cc1O` [Compound 87, 7,8-dimethoxy-2-(3-hydroxy-4-methoxyphenyl)-4H-chromen-4-one] belongs 8.7 µM. Regarding `CC(=O)Oc1ccc(-c2cc(=O)c3ccc(O)c(O)c3o2)cc1OC(C)=O` [Compound 90, 2-(3,4-diacetoxyphenyl)-7,8-dihydroxy-4H-chromen-4-one], the IC50 is 0.64 µM.
